From patent publication US11414689B2, “Hydrolysis of steviol glycosides by beta-glucosidase” (Conagen Inc., priority 2017, dated 2022)

B1: B-glu1: Pichia pastoris (GS115) beta-glucosidase, SEQ ID NO: 1, His-tagged, expressed in E. coli (protein, listed as Pichia pastoris)
chain: MTQLDVESLIQELTLNEKVQLLSGSDFWHTTPVRRLGIPKMRLSDGPNGVRGTKFFNGVPTACFPCGTGLGATFDKELLKEAGSLMADEAKAKAASVVLGPTANIARGPNGGRGFESFGEDPVVNGLSSAAMINGLQGKYIAATMKHYVCNDLEMDRNCIDAQVSHRALREVYLLPFQIAVRDANPRAIMTAYNKANGEHVSQSKFLLDEVLRKEWGWDGLLMSDWFGVYDAKSSITNGLDLEMPGPPQCRVHSATDHAINSGEIHINDVDERVRSLLSLINYCHQSGVTEEDPETSDNNTPETIEKLRKISRESIVLLKDDDRNRSILPLKKSDKIAVIGNNAKQAAYCGGGSASVLSYHTTTPFDSIKSRLEDSNTPAYTIGADAYKNLPPLGPQMTDSDGKPGFDAKFFVGSPTSKDRKLIDHFQLTNSQVFLVDYYNEQIPENKEFYVDVEGQFIPEEDGTYNFGLTVFGTGRLFVDDKLVSDSSQNQTPGDSFFGLAAQEVIGSIHLVKGKAYKIKVLYGSSVTRTYEIAASVAFEGGAFTFGAAKQRNEDEEIARAVEIAKANDKVVLCIGLNQDFESEGFDRPDIKIPGATNKMVSAVLKANPNTVIVNQTGTPVEMPWASDAPVILQAWFGGSEAGTAIADVLFGDYNPSGKLTVTFPLRFEDNPAYLNFQSNKQACWYGEDVYVGYRYYETIDRPVLFPFGHGLSFTEFDFTDMFVRLEEENLEVEVVVRNTGKYDGAEVVQLYVAPVSPSLKRPIKELKEYAKIFLASGEAKTVHLSVPIKYATSFFDEYQKKWCSEKGEYTILLGSSSADIKVSQSITLEKTTFWKGL
modifications: His tag

Key:
[1] = system: disrupted Pichia cells (released B-glu1 enzyme); experiment: hydrolysis of steviol glycosides by disrupted Pichia cells (crude extract), HPLC analysis; format: biochemical, Pichia pastoris; details: crude protein 50 ug in 300 ul, 1 g/L substrate, pH 7.2, 30-37° C.; FIG. 8 samples at 24 hours
Experimental: Pichia cells were suspended in extraction buffer (50 mM potassium phosphate buffer, pH 7.2; 150 mM NaCl). After sonication, the supernatant (crude extract) was collected by centrifuge set at 12,000 g at 4° C. The resulting crude protein (50 ug) was tested in a 300 ul in vitro reaction system. The reaction system contains 50 mM potassium phosphate buffer, pH 7.2, 1 mg/ml steviol glycoside. The reaction was performed at 30-37° C. and 50 ul reaction was terminated by adding 200 μL 1-butanol at various time points. The samples were extracted three times with 200 μL 1-butanol. The pooled fraction was dried and dissolved in 100 μL 80% methanol for high-performance liquid chromatography (HPLC) analysis. HPLC analysis was then performed using a Dionex UPLC ultimate 3000 system (Sunnyvale, Calif.), including a quaternary pump, a temperature controlled column compartment, an auto sampler and a UV absorbance detector. A Synergi Hydro-RP column (Phenomenex) with guard column was used for the characterization of steviol glycosides in the pooled samples. Acetonitrile in water was used mobile phase in the HPLC analysis. The detection wavelength used in the HPLC analysis was 210 nm.

[2] = system: Beta-glucosidase (B-glu1, SEQ: 1); experiment: de-glycosylation (hydrolysis) of steviol glycosides by purified recombinant B-glu1, HPLC analysis; format: biochemical, Pichia pastoris; details: for Products of hydrolysis of steviol glycoside substrate by B-glu1: recombinant B-glu1 10 μg in 300 μl, 1 mg/ml steviol glycoside, 50 mM potassium phosphate pH 7.2, 30-37° C.; for extent of conversion by recombinant B-glu1 at 24 hrs: 1 g/L substrate
Description: According to the current disclosure Pichia pastoris genome analysis was completed and several beta-glycosidase candidate genes were identified. Full length DNA fragments of all candidate beta-glucosidase genes were commercially synthesized. Almost all codons of the cDNA were changed to those preferred for E. coli (Genscript, NJ). The synthesized DNA was cloned into a bacterial expression vector pETite N-His SUMO Kan Vector (Lucigen). These same experiments could be performed in Yarrowia lipolytica with sequences optimized for such use.
Each expression construct was transformed into E. coli BL21 (DE3), which was subsequently grown in LB media containing 50 μg/mL kanamycin at 37° C. until reaching an OD600 of 0.8-1.0. Protein expression was induced by addition of 1 mM isopropyl β-D-1-thiogalactopyranoside (IPTG) and the culture was further grown at 16° C. for 22 hr. Cells were harvested by centrifugation (3,000×g; 10 min; 4° C.). The cell pellets were collected and were either used immediately or stored at −80° C.
The cell pellets typically were re-suspended in lysis buffer (50 mM potassium phosphate buffer, pH 7.2, 25 ug/ml lysozyme, 5 ug/ml DNase I, 20 mM imidazole, 500 mM NaCl, 10% glycerol, and 0.4% Triton X-100). The cells were disrupted by sonication under 4° C., and the cell debris was clarified by centrifugation (18,000×g; 30 min). Supernatant was loaded to an equilibrated (equilibration buffer: 50 mM potassium phosphate buffer, pH 7.2, 20 mM imidazole, 500 mM NaCl, 10% glycerol) Ni-NTA (Qiagen) affinity column. After loading of protein sample, the column was washed with equilibration buffer to remove unbound contaminant proteins. The His-tagged beta-glucosidase recombinant polypeptides were eluted by equilibration buffer containing 250 mM imidazole.
The purified candidate beta-glucosidase recombinant polypeptides were assayed for de-glycosylation activity by using various steviol glycosides as substrate. Typically, the recombinant polypeptide (10 μg) was tested in a 300 μl in vitro reaction system. The reaction system contains 50 mM potassium phosphate buffer, pH 7.2, 1 mg/ml steviol glycoside. The reaction was performed at 30-37° C. and 50 ul reaction was terminated by adding 200 μL 1-butanol at various time points. The samples were extracted three times with 200 μL 1-butanol. The pooled fraction was dried and dissolved in 100 μL 80% methanol for high-performance liquid chromatography (HPLC) analysis.
HPLC analysis was then performed using a Dionex UPLC ultimate 3000 system (Sunnyvale, Calif.), including a quaternary pump, a temperature controlled column compartment, an auto sampler and a UV absorbance detector. A Synergi Hydro-RP column (Phenomenex) with guard column was used for the characterization of steviol glycosides in the pooled samples. Acetonitrile in water was used mobile phase in the HPLC analysis. The detection wavelength used in the HPLC analysis was 210 nm.

[3] = relative to table sugar; cited from earlier work

| Molecule | Products of hydrolysis by disrupted Pichia cells [1] | Products of hydrolysis of steviol glycoside substrate by B-glu1 [2] | other results |
| --- | --- | --- | --- |
| C=C1C[C@@]23CC[C@H]4[C@@](C)(CCC[C@@]4(C)C(=O)O[C@@H]4O[C@H](CO)[C@@H](O)[C@H](O)[C@H]4O[C@@H]4O[C@H](CO)[C@@H](O)[C@H](O)[C@H]4O)[C@@H]2CC[C@]1(O[C@@H]1O[C@H](CO)[C@@H](O)[C@H](O)[C@H]1O[C@@H]1O[C@H](CO)[C@@H](O)[C@H](O)[C@H]1O)C3 [Reb E, rebaudioside E] | steviolbioside | stevioside, Steviolbioside (SB) | Products of hydrolysis of steviol glycoside substrate by B-glu1 ([2]; listed as Rebaudioside E): stevioside and steviolbioside |
| rebaudioside B [Reb B] | – | No cleavage | – |
| C=C1C[C@@]23CC[C@H]4[C@@](C)(CCC[C@@]4(C)C(=O)O[C@@H]4O[C@H](CO)[C@@H](O)[C@H](O)[C@H]4O[C@@H]4O[C@H](CO)[C@@H](O)[C@H](O)[C@H]4O)[C@@H]2CC[C@]1(O[C@@H]1O[C@H](CO)[C@@H](O)[C@H](O[C@@H]2O[C@H](CO)[C@@H](O)[C@H](O)[C@H]2O)[C@H]1O[C@@H]1O[C@H](CO)[C@@H](O)[C@H](O)[C@H]1O)C3 [Reb D, rebaudioside D] | rebaudioside B | Reb B | Products of hydrolysis of steviol glycoside substrate by B-glu1 ([2]; listed as Rebaudioside D): rebaudioside B (FIG. 6B) and Reb A |
| C=C1C[C@@]23CC[C@H]4[C@@](C)(CCC[C@@]4(C)C(=O)O[C@@H]4O[C@H](CO)[C@@H](O)[C@H](O)[C@H]4O)[C@@H]2CC[C@]1(O[C@@H]1O[C@H](CO)[C@@H](O)[C@H](O)[C@H]1O[C@@H]1O[C@H](CO)[C@@H](O)[C@H](O)[C@H]1O)C3 [Stevioside, stevioside] | steviolbioside | Steviolbioside (SB) | sweetness relative to sucrose [3]: 100-150 times sweeter than sucrose |
| C=C1C[C@@]23CC[C@H]4[C@@](C)(CCC[C@@]4(C)C(=O)O)[C@@H]2CC[C@]1(O[C@@H]1O[C@H](CO)[C@@H](O)[C@H](O)[C@H]1O)C3 [steviol-13-glucoside] | – | steviol | extent of conversion by recombinant B-glu1 at 24 hrs [2]: completely |
| C=C1C[C@@]23CC[C@H]4[C@@](C)(CCC[C@@]4(C)C(=O)O[C@@H]4O[C@H](CO)[C@@H](O)[C@H](O[C@@H]5O[C@H](CO)[C@@H](O)[C@H](O)[C@H]5O)[C@H]4O[C@@H]4O[C@H](CO)[C@@H](O)[C@H](O)[C@H]4O)[C@@H]2CC[C@]1(O[C@@H]1O[C@H](CO)[C@@H](O)[C@H](O[C@@H]2O[C@H](CO)[C@@H](O)[C@H](O)[C@H]2O)[C@H]1O[C@@H]1O[C@H](CO)[C@@H](O)[C@H](O)[C@H]1O)C3 [Reb M, rebaudioside M] | – | No cleavage | – |
| C=C1C[C@@]23CC[C@H]4[C@@](C)(CCC[C@@]4(C)C(=O)O[C@@H]4O[C@H](CO)[C@@H](O)[C@H](O)[C@H]4O)[C@@H]2CC[C@]1(O[C@@H]1O[C@H](CO)[C@@H](O)[C@H](O)[C@H]1O)C3 [Rub, rubusoside] | steviol-13-glucoside and continually to produce steviol | Steviol-13-O-glucoside (S-13-G), steviol | Products of hydrolysis of steviol glycoside substrate by B-glu1 ([2]; listed as Rubusoside): steviol-13-glucoside |
| C=C1C[C@@]23CC[C@H]4[C@@](C)(CCC[C@@]4(C)C(=O)O[C@@H]4O[C@H](CO)[C@@H](O)[C@H](O[C@@H]5O[C@H](CO)[C@@H](O)[C@H](O)[C@H]5O)[C@H]4O)[C@@H]2CC[C@]1(O[C@@H]1O[C@H](CO)[C@@H](O)[C@H](O[C@@H]2O[C@H](CO)[C@@H](O)[C@H](O)[C@H]2O)[C@H]1O[C@@H]1O[C@H](CO)[C@@H](O)[C@H](O)[C@H]1O)C3 [Reb 1, rebaudioside I] | rebaudioside B | Reb A, Reb B | extent of conversion by recombinant B-glu1 at 24 hrs [2]: completely; Products of hydrolysis of steviol glycoside substrate by B-glu1 ([2]; listed as Rebaudioside I): rebaudioside A and the produced A can be hydrolyzed to produce rebaudioside B |
| C=C1C[C@@]23CC[C@H]4[C@@](C)(CCC[C@@]4(C)C(=O)O[C@@H]4O[C@H](CO)[C@@H](O)[C@H](O)[C@H]4O)[C@@H]2CC[C@]1(O[C@@H]1O[C@H](CO)[C@@H](O)[C@H](O[C@@H]2O[C@H](CO)[C@@H](O)[C@H](O)[C@H]2O)[C@H]1O)C3 [Reb G, rebaudioside G] | steviol-13-glucoside and continually to produce steviol | Steviol-13-O-glucoside (S-13-G), steviol | Products of hydrolysis of steviol glycoside substrate by B-glu1 ([2]; listed as Rebaudioside G): steviol-13-glucoside |
| C=C1C[C@@]23CC[C@H]4[C@@](C)(CCC[C@@]4(C)C(=O)O[C@@H]4O[C@H](CO)[C@@H](O)[C@H](O)[C@H]4O)[C@@H]2CC[C@]1(O[C@@H]1O[C@H](CO)[C@@H](O)[C@H](O[C@@H]2O[C@H](CO)[C@@H](O)[C@H](O)[C@H]2O)[C@H]1O[C@@H]1O[C@H](CO)[C@@H](O)[C@H](O)[C@H]1O)C3 [Reb A, rebaudioside A] | rebaudioside B | Reb B | Products of hydrolysis of steviol glycoside substrate by B-glu1 ([2]; listed as Rebaudioside A): rebaudioside B |
| B1 | – | – | activity to cleave related steviol glycosides ([2]; activity screening of candidate Pichia pastoris beta-glucosidases): strong activity |
